Test results: ChEMBL document CHEMBL1201862, “PubChem BioAssay data set” (2004)
Active and inactive are the calls of the source.

Columns and labels:
[1] = inhibitors of intracellular T. cruzi replication, confirmation, NIH3T3 host cells, beta-gal luminescence (AID 2044); format: functional, cell-based;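 further: intracellular parasites grown in NIH/3T3 mouse fibroblasts as host cells; luminescent beta-galactosidase reporter signal from transgenic T. cruzi replicating inside host cells; inhibitors lower the luminescence signal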
[2] = cells
[3] = cytotoxicity toward NIH3T3 fibroblasts, dose response, counter-screen, cell-based, ATP luminescence, mouse fibroblasts (AID 2010); format: functional;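 further: cells exposed to compound for about 90 hours before reading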
[4] = biological target: T1, Corticotropin-releasing factor receptor 2/Corticotropin-releasing factor-binding protein (Homo sapiens, UniProt P24387+Q13324); test: Dose Response confirmation of uHTS hits for small molecule antagonists of the CRF-binding protein and CRF-R2 receptor complex.; format: functional; conditions: read-out: IC50_Mean
T1 sequence (Q13324 whole entry): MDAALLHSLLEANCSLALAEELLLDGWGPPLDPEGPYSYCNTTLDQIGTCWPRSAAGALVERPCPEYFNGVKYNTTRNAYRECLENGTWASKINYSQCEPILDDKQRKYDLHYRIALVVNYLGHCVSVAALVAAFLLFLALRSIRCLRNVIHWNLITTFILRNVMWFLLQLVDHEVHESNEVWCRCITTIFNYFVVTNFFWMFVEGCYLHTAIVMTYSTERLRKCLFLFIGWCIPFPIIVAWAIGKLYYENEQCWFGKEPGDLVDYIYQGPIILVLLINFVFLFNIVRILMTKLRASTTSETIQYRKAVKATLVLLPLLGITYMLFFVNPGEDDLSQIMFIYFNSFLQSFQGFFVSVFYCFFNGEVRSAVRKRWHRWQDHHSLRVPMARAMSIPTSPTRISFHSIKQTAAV
T1 sequence (P24387 whole entry): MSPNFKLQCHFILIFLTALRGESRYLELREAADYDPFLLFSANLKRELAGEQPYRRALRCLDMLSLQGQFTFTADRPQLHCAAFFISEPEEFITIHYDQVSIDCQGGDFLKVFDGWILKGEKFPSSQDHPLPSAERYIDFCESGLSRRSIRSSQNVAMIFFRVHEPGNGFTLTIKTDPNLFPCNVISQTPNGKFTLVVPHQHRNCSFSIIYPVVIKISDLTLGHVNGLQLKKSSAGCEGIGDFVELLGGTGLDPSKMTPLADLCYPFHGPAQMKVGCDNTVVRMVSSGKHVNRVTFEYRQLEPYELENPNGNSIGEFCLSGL

[5] = HEp-2 cell cytotoxicity, dose response, cytotoxicity control for RSV inhibitor project, HTS (AID 2410); format: functional; conditions: human respiratory syncytial virus
[6] = cells; remark: listed apart in the source
[7] = test system: Vero; test: host cell cytotoxicity of antiviral hits, dose response, cytotoxicity control for West Nile virus antiviral project, secondary assay (AID 1650); format: functional; conditions: Chlorocebus sabaeus
[8] = biological target: T1, Corticotropin-releasing factor receptor 2/Corticotropin-releasing factor-binding protein; test: activators of CRF receptor 2 with binding protein – uHTS hits, confirmation (AID 602473); format: functional; conditions: read-out: EC50_Mean
[9] = biological target: Luciferin 4-monooxygenase (Photinus pyralis, UniProt P08659); test: Counter Screen for Luciferase-based Assay Positives. [Related pubchem assays: 620, 618, 411 ]
Luciferin 4-monooxygenase, sequence (P08659 whole entry): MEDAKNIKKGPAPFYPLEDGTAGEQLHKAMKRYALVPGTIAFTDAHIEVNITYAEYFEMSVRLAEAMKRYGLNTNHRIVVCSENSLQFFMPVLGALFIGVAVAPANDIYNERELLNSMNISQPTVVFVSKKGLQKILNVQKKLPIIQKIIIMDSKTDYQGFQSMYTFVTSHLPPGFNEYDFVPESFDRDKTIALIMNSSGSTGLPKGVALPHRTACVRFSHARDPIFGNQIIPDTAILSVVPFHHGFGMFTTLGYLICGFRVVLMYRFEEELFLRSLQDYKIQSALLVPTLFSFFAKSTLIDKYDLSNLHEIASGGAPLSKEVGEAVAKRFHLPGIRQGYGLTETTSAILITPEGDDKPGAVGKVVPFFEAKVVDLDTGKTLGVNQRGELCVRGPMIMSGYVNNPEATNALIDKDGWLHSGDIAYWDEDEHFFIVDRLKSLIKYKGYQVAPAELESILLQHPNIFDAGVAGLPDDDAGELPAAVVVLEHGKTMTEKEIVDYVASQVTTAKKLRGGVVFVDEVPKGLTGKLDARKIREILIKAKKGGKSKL

[10] = Luminescence Cell-Based Dose Response HTS to Identify Inhibitors of 5'UTR Stem-Loop Driven Prion Protein mRNA Translation in H4 Neuroglioblastoma Cells. [Related pubchem assays: 1827 (Project Summary), 1813 (Primary HTS)]; format: functional
[11] = test system: HT-1080; test: cytotoxicity in HT1080 fibrosarcoma cells, cell-based, fluorescence readout (AID 620); format: functional; conditions: Homo sapiens
[12] = inhibitors of SNCA 5'UTR-driven reporter translation, confirmation, H4 neuroglioma cells, luminescence (AID 1988); format: functional, cell-based
[13] = M. tuberculosis H37Rv growth inhibitors, H37Rv strain (AID 1626); format: functional
[14] = biological target: T2, Bcl-2-like protein 10 (Homo sapiens, UniProt Q9HD36); test: displacers of TR3 peptide from Bcl-B, primary screen, selectivity assay for Bfl-1 inhibitor project, biochemical, fluorescence polarization, FITC-TR3 peptide (AID 748);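 further: fluorescence polarization from a fluorescein-labelled TR3 peptide binding purified Bcl-B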
T2 sequence (Q9HD36 whole entry): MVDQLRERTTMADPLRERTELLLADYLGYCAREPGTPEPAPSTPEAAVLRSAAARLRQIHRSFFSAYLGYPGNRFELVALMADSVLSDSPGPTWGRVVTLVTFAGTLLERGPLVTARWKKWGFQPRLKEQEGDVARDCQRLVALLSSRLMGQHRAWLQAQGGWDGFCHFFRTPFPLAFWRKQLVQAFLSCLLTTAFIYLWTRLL

[15] = biological target: T3, Estrogen receptor beta (Homo sapiens, UniProt Q92731);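 further: recombinant ER-beta bound to coactivator SRC1 peptide in presence of estradiol agonist; inhibitors block coactivator peptide binding and lower the FRET signal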
T3 sequence (Q92731 whole entry): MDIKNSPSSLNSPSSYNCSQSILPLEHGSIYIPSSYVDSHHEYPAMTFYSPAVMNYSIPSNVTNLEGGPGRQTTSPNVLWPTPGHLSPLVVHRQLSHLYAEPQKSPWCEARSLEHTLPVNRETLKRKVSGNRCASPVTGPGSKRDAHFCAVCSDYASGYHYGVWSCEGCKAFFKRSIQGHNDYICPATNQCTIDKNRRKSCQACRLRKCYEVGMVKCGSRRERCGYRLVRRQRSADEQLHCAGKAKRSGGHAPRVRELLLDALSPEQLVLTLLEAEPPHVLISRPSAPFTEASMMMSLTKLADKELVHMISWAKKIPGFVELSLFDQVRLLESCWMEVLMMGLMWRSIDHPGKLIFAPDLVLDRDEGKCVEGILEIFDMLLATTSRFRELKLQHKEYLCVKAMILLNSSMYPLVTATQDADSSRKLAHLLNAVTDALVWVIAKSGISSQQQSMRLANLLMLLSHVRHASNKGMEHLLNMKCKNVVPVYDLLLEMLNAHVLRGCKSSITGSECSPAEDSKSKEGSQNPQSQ

[16] = biological target: T3, Estrogen receptor beta; test: ERβ–SRC-3 coactivator interaction inhibitors, confirmation, orthogonal assay, biochemical, ELISA, streptavidin-HRP readout (AID 1060)
[17] = biological target: T4, Insulin-degrading enzyme (Homo sapiens, UniProt P14735); test: Dose Response: Fluorescence polarization-based cell-based high throughput dose response assay for inhibitors of insulin-degrading enzyme (IDE). [Related pubchem assays: 434962 (Primary screen (IDE inhibitors in singlicate)), 449730 (Counterscreen (Cytotoxicity in triplicate)), 435028 (Confirmation (IDE inhibitors in triplicate)), 434984 (Summary …; format: functional
T4 sequence (P14735 whole entry): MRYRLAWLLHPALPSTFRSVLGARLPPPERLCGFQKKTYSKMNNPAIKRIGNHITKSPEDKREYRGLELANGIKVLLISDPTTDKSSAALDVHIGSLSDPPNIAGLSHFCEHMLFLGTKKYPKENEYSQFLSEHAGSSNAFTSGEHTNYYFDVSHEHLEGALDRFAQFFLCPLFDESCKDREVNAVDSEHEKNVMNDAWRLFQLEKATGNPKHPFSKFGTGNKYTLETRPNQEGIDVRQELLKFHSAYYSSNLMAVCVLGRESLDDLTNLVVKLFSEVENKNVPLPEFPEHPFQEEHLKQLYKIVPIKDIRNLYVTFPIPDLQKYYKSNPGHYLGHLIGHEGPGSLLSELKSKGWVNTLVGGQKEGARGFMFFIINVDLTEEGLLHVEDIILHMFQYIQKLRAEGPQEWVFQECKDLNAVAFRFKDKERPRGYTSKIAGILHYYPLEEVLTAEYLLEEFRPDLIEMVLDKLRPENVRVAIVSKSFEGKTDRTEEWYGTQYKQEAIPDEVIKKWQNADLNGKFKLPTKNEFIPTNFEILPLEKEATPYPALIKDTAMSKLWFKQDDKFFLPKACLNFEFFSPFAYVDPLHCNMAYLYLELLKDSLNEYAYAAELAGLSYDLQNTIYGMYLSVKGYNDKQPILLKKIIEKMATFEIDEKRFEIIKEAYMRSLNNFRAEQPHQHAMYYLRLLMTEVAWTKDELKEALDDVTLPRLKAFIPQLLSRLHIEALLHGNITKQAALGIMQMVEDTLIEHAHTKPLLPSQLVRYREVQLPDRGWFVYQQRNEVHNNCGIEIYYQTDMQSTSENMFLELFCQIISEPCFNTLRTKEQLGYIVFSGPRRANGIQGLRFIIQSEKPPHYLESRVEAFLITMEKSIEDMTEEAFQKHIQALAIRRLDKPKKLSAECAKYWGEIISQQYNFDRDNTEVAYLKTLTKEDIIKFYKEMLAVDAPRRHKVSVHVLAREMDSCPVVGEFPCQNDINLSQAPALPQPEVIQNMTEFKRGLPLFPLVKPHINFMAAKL

[18] = Counterscreen for IDE inhibitors: Luminescence-based cell-based high throughput dose response assay to identify compounds that are cytotoxic to HEK cells. [Related pubchem assays: 434962 (Primary screen (IDE inhibitors in singlicate)), 449730 (Counterscreen (Cytotoxicity in triplicate)), 435028 (Confirmation (IDE inhibitors in triplicate)) …; format: functional; conditions: HEK293

**Q.** What does the source list for CCc1c(C)c(C#N)c2nc3ccccc3n2c1NCCN(C)C?
**A.** EC50 [1]: < 0.1 µM (active); EC50 [2]: 0.014 µM (active); EC50 [3]: > 30 µM (not active)

**Q.** What does the source list for Cc1cc(=O)oc2c1ccc1oc(/C(=N/O)c3ccccc3)c(C)c12?
**A.** IC50 [4]: 24.5 µM (active); CC50 [5]: < 0.1 µM (active); IC50 [6]: 18.3 µM (active); CC50 [7]: 18.1 µM (active); EC50 [8]: > 53 µM (inactive)

**Q.** Which EC50 [9] does the source give for Cn1ccnc1SCc1cn2cc(Br)ccc2n1 here?
**A.** 38.1 µM (active)

**Q.** And the EC50 [10]?
**A.** 7.92 µM (active)

**Q.** And the EC50 [11]?
**A.** > 50 µM (not active)

**Q.** What about the EC50 [12] of the same compound?
**A.** 7.22 µM (inconclusive)

**Q.** With Cc1nccc(-c2ccc(-n3c(C)ccc3C)cc2)n1 as the compound, how does the IC50 [13] read?
**A.** > 100 µM (active)

**Q.** Which results are given for CCS(=O)(=O)N1Cc2ccccc2CC1C(=O)N1CCN(c2cccc(C)c2C)CC1 (stereo not drawn)?
**A.** IC50 [14]: 80 µM (inactive); IC50 [15]: > 50 µM (not active); IC50 [16]: 2.96 µM (not active)

**Q.** Which IC50 [17] does the source give for Cc1cccc(C(=O)Nc2ccnc(-c3ccncc3)n2)c1 here?
**A.** 7.39 µM (active)

**Q.** And the IC50 [18]?
**A.** 22.9 µM (not active)
